Columns and labels:
Plasmodium falciparum [1] = assay: NOVARTIS: Inhibition of Plasmodium falciparum 3D7 (drug-susceptible) proliferation in erythrocyte-based infection assay; assay type: functional, organism-based; conditions: Plasmodium falciparum, 3D7
Plasmodium falciparum [2] = assay: NOVARTIS: Inhibition of Plasmodium falciparum W2 (drug-resistant) proliferation in erythrocyte-based infection assay; assay type: functional, organism-based; conditions: Plasmodium falciparum, W2; read-out: EC50
[3] = NOVARTIS: Cytotoxicity against human hepatocellular carcinoma cell line (Huh7); assay type: toxicity, cell-based, Huh-7; conditions: Huh7 cells (hepatocellular carcinoma cell line)

CN(C)CCN1CCN(c2cncc(-c3cccnc3)n2)CC1
EC50 (Plasmodium falciparum [1]): > 1110 nM
EC50 (Plasmodium falciparum [2]): > 1250 nM
CC50 [3]: > 10000 nM

O=c1c2[nH]c3ccccc3c2ncn1Cc1ccc2c(c1)OCO2
EC50 (Plasmodium falciparum [1]): > 12500 nM
EC50 (Plasmodium falciparum [2]): 2000 nM
CC50 [3]: > 100000 nM

CCOC(=O)c1ccc(NC(=O)c2ccc3nc(NC(=O)c4ccc(C(=O)OC)cc4)sc3c2)cc1
EC50 (Plasmodium falciparum [1]): > 6510 nM
EC50 (Plasmodium falciparum [2]): 1800 nM
CC50 [3]: > 100000 nM

CC(=O)Nc1ccc(-c2nc3c4ccccc4c4ccc(I)cc4c3[nH]2)cc1
EC50 (Plasmodium falciparum [1]): 296 nM
EC50 (Plasmodium falciparum [2]): 362 nM
CC50 [3]: > 100000 nM

Cc1ccc(Cl)cc1Nc1nc2ccccc2n2c(C)nnc12
EC50 (Plasmodium falciparum [1]): > 12500 nM
EC50 (Plasmodium falciparum [2]): 4470 nM
CC50 [3]: > 100000 nM

COc1ccc(CN(Cc2cc3cccc(C)c3[nH]c2=O)C(=S)NC2CCCCC2)cc1
EC50 (Plasmodium falciparum [1]): > 1250 nM
EC50 (Plasmodium falciparum [2]): 487 nM
CC50 [3]: > 10000 nM

CN1c2ccccc2N(C)C1c1ccc2c(c1)OCO2
EC50 (Plasmodium falciparum [1]): 1120 nM
EC50 (Plasmodium falciparum [2]): > 1410 nM
CC50 [3]: > 10000 nM

c1ccc(C2=Nc3ccccc3C(c3ccccc3)(c3ccccc3)N2)cc1
EC50 (Plasmodium falciparum [1]): 754 nM
EC50 (Plasmodium falciparum [2]): 590 nM
CC50 [3]: 39400 nM

COc1ccc(C(=O)C[n+]2ccc3c(c2)nc(-c2ccc(OC)cc2OC)n3C)cc1
EC50 (Plasmodium falciparum [1]): 920 nM
EC50 (Plasmodium falciparum [2]): 512 nM
CC50 [3]: > 100000 nM

COc1ccccc1NC(=O)CSc1nc2cccnc2n1-c1ccccc1OC
EC50 (Plasmodium falciparum [1]): 833 nM
EC50 (Plasmodium falciparum [2]): 848 nM
CC50 [3]: > 10000 nM

COc1ccc(C2CC(=O)C3=C(C2)NC(C)=C(C(=O)OC2CCCC2)C3c2ccc(F)cc2)cc1OC (stereo not drawn)
EC50 (Plasmodium falciparum [1]): 12.6 nM
EC50 (Plasmodium falciparum [2]): 19.3 nM
CC50 [3]: 11600 nM

CCCc1c(C)nc2ccc(C)cc2c1O
EC50 (Plasmodium falciparum [1]): 3220 nM
EC50 (Plasmodium falciparum [2]): 2960 nM
CC50 [3]: > 100000 nM

Cc1nc(NN=Cc2ccccc2O)cc(N2CCCCC2)n1
EC50 (Plasmodium falciparum [1]): 1080 nM
EC50 (Plasmodium falciparum [2]): 237 nM
CC50 [3]: > 10000 nM

CC(Oc1cccc(Cl)c1)C(=O)N1CCc2ccccc21 (stereo not drawn)
EC50 (Plasmodium falciparum [1]): 748 nM
EC50 (Plasmodium falciparum [2]): 750 nM
CC50 [3]: > 100000 nM

CCCOC(=O)C1=C(C)NC2=C(C(=O)CC(c3ccc(OC)c(OC)c3)C2)C1c1ccc(O)c(OCC)c1 (stereo not drawn)
EC50 (Plasmodium falciparum [1]): 2400 nM
EC50 (Plasmodium falciparum [2]): 1280 nM
CC50 [3]: > 100000 nM

Cc1cccc2c1[nH]c1nc(SCC(C)C)nnc12
EC50 (Plasmodium falciparum [1]): 1480 nM
EC50 (Plasmodium falciparum [2]): 873 nM
CC50 [3]: > 100000 nM

COc1cc(C2Nc3ccc4ccccc4c3C3=C2C(=O)CC(C)(C)C3)ccc1Oc1ccc([N+](=O)[O-])cc1C(F)(F)F (stereo not drawn)
EC50 (Plasmodium falciparum [1]): 285 nM
EC50 (Plasmodium falciparum [2]): 95.8 nM
CC50 [3]: > 100000 nM

Cc1ccc2nc(Nc3nc(O)c4ccccc4n3)nc(C)c2c1
EC50 (Plasmodium falciparum [1]): 575 nM
EC50 (Plasmodium falciparum [2]): > 1620 nM
CC50 [3]: > 10000 nM

Cc1ccc(Nc2cc(C)nc(NCc3ccccc3)n2)c(C)c1
EC50 (Plasmodium falciparum [1]): 306 nM
EC50 (Plasmodium falciparum [2]): 619 nM
CC50 [3]: 6510 nM

O=C(NC1CC1)c1ccc(CSCc2ccccc2Cl)o1
EC50 (Plasmodium falciparum [1]): 503 nM
EC50 (Plasmodium falciparum [2]): 562 nM
CC50 [3]: > 100000 nM

COc1cccc(NC(=O)c2ccc3oc(=O)c(S(=O)(=O)c4ccccc4)cc3c2)c1
EC50 (Plasmodium falciparum [1]): > 1250 nM
EC50 (Plasmodium falciparum [2]): > 898 nM
CC50 [3]: > 10000 nM

COc1ccc(C(=O)Nc2nonc2-c2ccc(OC)c(OC)c2)cc1Cl
EC50 (Plasmodium falciparum [1]): 1780 nM
EC50 (Plasmodium falciparum [2]): 2540 nM
CC50 [3]: > 100000 nM

c1ccc(Cn2c(N=Nc3c(Nc4ccccc4)ccc4ccccc34)nc3ccccc32)cc1
EC50 (Plasmodium falciparum [1]): 2730 nM
EC50 (Plasmodium falciparum [2]): 669 nM
CC50 [3]: 88000 nM

O=C(Nc1ccc(Cl)cc1Cl)c1ccc(-c2nc(-c3ccccc3Cl)cs2)cc1
EC50 (Plasmodium falciparum [1]): 150 nM
EC50 (Plasmodium falciparum [2]): 106 nM
CC50 [3]: > 7930 nM

O=c1c(=Cc2ccc(-c3ccc([N+](=O)[O-])cc3Cl)o2)sc2nc3ccccc3n12
EC50 (Plasmodium falciparum [1]): > 1130 nM
EC50 (Plasmodium falciparum [2]): > 1250 nM
CC50 [3]: > 10000 nM

O=C1C2C(C(=O)N1c1ccccc1F)C1(c3ccccc3)C(=O)C2(c2ccccc2)C(c2ccccc2)=C1c1ccccc1 (stereo not drawn)
EC50 (Plasmodium falciparum [1]): 811 nM
EC50 (Plasmodium falciparum [2]): 344 nM
CC50 [3]: > 100000 nM

Cc1ccc(C(=O)N(C)CCCNc2ccnc3cc(Cl)ccc23)cc1
EC50 (Plasmodium falciparum [1]): 141 nM
EC50 (Plasmodium falciparum [2]): 122 nM
CC50 [3]: 5370 nM

CCCCCC[P+](N(CCC)CCC)(N(CCC)CCC)N(CCC)CCC
EC50 (Plasmodium falciparum [1]): 70.4 nM
EC50 (Plasmodium falciparum [2]): 95.6 nM
CC50 [3]: 1160 nM

CC(C)CCN(CCC(C)C)CC(O)Cn1c2ccc(Cl)cc2c2cc(Cl)ccc21 (stereo not drawn)
EC50 (Plasmodium falciparum [1]): 292 nM
EC50 (Plasmodium falciparum [2]): 82.8 nM
CC50 [3]: > 100000 nM

CCOC(=O)c1c(C)oc2c1C(=O)c1ccccc1C2=O
EC50 (Plasmodium falciparum [1]): 1960 nM
EC50 (Plasmodium falciparum [2]): 710 nM
CC50 [3]: 49300 nM

CN(C)CC(O)Cn1c2ccccc2c2ccccc21 (stereo not drawn)
EC50 (Plasmodium falciparum [1]): > 11700 nM
EC50 (Plasmodium falciparum [2]): 275 nM
CC50 [3]: 52800 nM

Cn1nc(C(=O)N2CCc3ccccc3C2)c2c1CCC(N1CCN(Cc3cccc(F)c3)CC1)C2 (stereo not drawn)
EC50 (Plasmodium falciparum [1]): 477 nM
EC50 (Plasmodium falciparum [2]): 220 nM
CC50 [3]: 8020 nM

CN(Cc1cc2ccc(F)cc2n(CCN2CCCCC2)c1=O)CC1COCCO1 (stereo not drawn)
EC50 (Plasmodium falciparum [1]): > 12500 nM
EC50 (Plasmodium falciparum [2]): 4620 nM
CC50 [3]: > 100000 nM

Cc1cc(C)cc(NC(=S)NCCO)c1
EC50 (Plasmodium falciparum [1]): 3860 nM
EC50 (Plasmodium falciparum [2]): 513 nM
CC50 [3]: > 100000 nM

CCCCN(C(=O)Nc1ccc(OCC)cc1)C(C)c1nc2ccccc2c(=O)n1-c1ccc(F)c(Cl)c1 (stereo not drawn)
EC50 (Plasmodium falciparum [1]): 1010 nM
EC50 (Plasmodium falciparum [2]): 935 nM
CC50 [3]: > 10000 nM

O=C(c1ccc2c(c1)OCO2)N1CCOC(c2ccc(Cl)cc2)C1 (stereo not drawn)
EC50 (Plasmodium falciparum [1]): 1630 nM
EC50 (Plasmodium falciparum [2]): 4110 nM
CC50 [3]: > 100000 nM

COc1ccc(OC)c(-c2ccc(O)c(CNCCCN(C)C)c2)c1
EC50 (Plasmodium falciparum [1]): 1260 nM
EC50 (Plasmodium falciparum [2]): 670 nM
CC50 [3]: 21400 nM

Oc1ccc(-c2ccc3c(c2)OCO3)cc1CNCC1(N2CCCCC2)CCCCC1
EC50 (Plasmodium falciparum [1]): 291 nM
EC50 (Plasmodium falciparum [2]): 35.4 nM
CC50 [3]: > 100000 nM

O=C(NCCc1ccc(Cl)cc1)C1CCCN(c2nnc(N3CCCC3=O)s2)C1 (stereo not drawn)
EC50 (Plasmodium falciparum [1]): > 12500 nM
EC50 (Plasmodium falciparum [2]): 3890 nM
CC50 [3]: > 100000 nM

O=C(Nc1ccc(C2=NCCN2)cc1)Nc1cc(C(=O)Nc2ccc(C3=NCCN3)cc2)ccc1C(=O)Nc1ccc(C2=NCCN2)cc1
EC50 (Plasmodium falciparum [1]): 99.7 nM
EC50 (Plasmodium falciparum [2]): 62.9 nM
CC50 [3]: > 10000 nM

Brc1ccc2[nH]c3c(NCCCN4CCOCC4)ncnc3c2c1
EC50 (Plasmodium falciparum [1]): 359 nM
EC50 (Plasmodium falciparum [2]): 957 nM
CC50 [3]: > 98700 nM

COC(=O)C1C(=O)C2=C(CC1C)NC(=O)CC2c1cccc(Cl)c1Cl (stereo not drawn)
EC50 (Plasmodium falciparum [1]): 814 nM
EC50 (Plasmodium falciparum [2]): 617 nM
CC50 [3]: > 100000 nM

COc1ccc(/C=C/C(=O)NC(=O)c2ccccc2O)cc1
EC50 (Plasmodium falciparum [1]): 118 nM
EC50 (Plasmodium falciparum [2]): 92.1 nM
CC50 [3]: > 10000 nM

Cn1c(SCC2CCCO2)nnc1C1CCN(C/C=C/c2ccccc2)CC1 (stereo not drawn)
EC50 (Plasmodium falciparum [1]): > 1280 nM
EC50 (Plasmodium falciparum [2]): > 758 nM
CC50 [3]: > 3890 nM

COc1ccccc1CNc1ncc(C(=O)NCc2ccccc2)c(NCCc2ccccc2)n1
EC50 (Plasmodium falciparum [1]): 1280 nM
EC50 (Plasmodium falciparum [2]): > 1300 nM
CC50 [3]: > 10000 nM

O=C(NN=Cc1ccc(Br)cc1)c1ccco1
EC50 (Plasmodium falciparum [1]): 11400 nM
EC50 (Plasmodium falciparum [2]): > 12500 nM
CC50 [3]: > 100000 nM

Cc1ccc2c(Cl)c(C(=O)N3CC(C)OC(C)C3)sc2c1 (stereo not drawn)
EC50 (Plasmodium falciparum [1]): 102 nM
EC50 (Plasmodium falciparum [2]): 72 nM
CC50 [3]: > 100000 nM

Cc1nc2ccc(-c3ccc4nc(C)[nH]c4c3)cc2[nH]1
EC50 (Plasmodium falciparum [1]): 2090 nM
EC50 (Plasmodium falciparum [2]): 844 nM
CC50 [3]: 8630 nM

CCOC(=O)c1cnn(-c2ccnc3cc(Cl)ccc23)c1CNC(C)c1cccs1 (stereo not drawn)
EC50 (Plasmodium falciparum [1]): > 1560 nM
EC50 (Plasmodium falciparum [2]): > 944 nM
CC50 [3]: > 10000 nM

COc1ccc2c(c1)CC1c3c(cc4c(c3-2)OCO4)CCN1C (stereo not drawn)
EC50 (Plasmodium falciparum [1]): 38.5 nM
EC50 (Plasmodium falciparum [2]): 121 nM
CC50 [3]: 15600 nM

c1ccc(Cn2nnnc2CN2CCN(C(c3ccccc3)c3ccccc3)CC2)cc1
EC50 (Plasmodium falciparum [1]): 2870 nM
EC50 (Plasmodium falciparum [2]): 1670 nM
CC50 [3]: > 100000 nM
